# According to publication PMC5365251, “Biophysical assay for tethered signaling reactions reveals tether-controlled activity for the phosphatase SHP-1” (Science Advances, 2017):
# Key:
# PEG12-ITIM peptide = assay: Solution phosphatase assay (inorganic phosphate release); assay type: biochemical, mouse; conditions: PEG12-ITIM 10 μM, pH 7.4, 10°C, BIOMOL Green; fit of progress curves
# Description: Purified SHP-1 was mixed with PEG12-ITIM peptide at 10 μM, in 10 mM Hepes (pH 7.4), 150 mM NaCl, 3 mM EDTA, 0.005% Surfactant P20, and 1 mM dithiothreitol (Sigma). Temperature was regulated to 10°C with a thermocycler heat block, and the production of inorganic phosphate was measured at the indicated time points using BIOMOL Green (Enzo Life Sciences).
# The resulting progress curves (Fig. 1B) were fit using a standard mathematical model ([20]) based on the following reaction scheme F+S^*⇌koffkonCkcat⇀F+S where F is the phosphatase, S* is the phosphorylated peptide substrate, S is the unphosphorylated peptide product, and C is the intermediate enzyme-substrate complex. This reaction scheme corresponds to the following coupled ODEs ∂F/∂t=−konFS*+(koff+kcat)C∂S*/∂t=−konFS*+koffC∂C/∂t=konFS*−(koff+kcat)C∂S/∂t=kcatC with the following conservation equations for the enzyme and substrate, FT=E+CST=S*+C+S where FT is the initial SHP-1 concentration and ST is the initial concentration of phosphorylated substrate. A common assumption for in vitro solution-based enzyme assays is that the enzyme-substrate complex (C) changes on a […] time scale compared to the time scale of product formation (that is, ∂C/∂t ≈ 0). Using this quasi–steady-state approximation, which is valid when E ≪ S + Km ([46], [47]), we find C = FTS^∗/(Km + S^∗). […] The initial condition is S(t = 0) = 0. […]
# PEG28-ITIM = assay: SPR of SHP-1 injected over immobilised PEG28-ITIM: tethered/solution catalysis and reach (MPDPDE fit); assay type: biochemical, mouse
# Description: A construct expressing murine SHP-1 with an N-terminal 6× His tag was provided by M. H. Brown. Mutation of the SH2 domains was performed using a quick-change strategy. The mutations introduced were R30K and R33E for the N-terminal SH2 domain mutant and R136K for the C-terminal SH2 domain mutant previously shown to result in loss of binding ([6]). All peptides were ordered from PeptideSynthetics and were certified to be >95% pure. Peptides sequences were derived from the membrane-proximal ITIM sequence of mouse LAIR-1 receptor.
# Experiments were performed on a Biacore 3000 instrument (GE Healthcare Life Sciences). All experiments were performed at 10°C and with a buffer flow rate of 10 μl/min. The buffer used was Hepes-buffered saline (HBS-EP; GE Healthcare Life Sciences), which contained 10 mM Hepes (pH 7.4), 150 mM NaCl, 3 mM EDTA, and 0.005% Surfactant P20.
# A CM5 sensorchip was coupled with streptavidin to near saturation (typically between 4000 and 7000 RU) using the amine coupling kit (GE Healthcare Life Sciences) as described previously ([42]). After streptavidin was coupled, biotinylated peptides were injected to give the indicated concentrations in experimental flow cells, and excess biotin-binding sites were blocked with biotin in HBS-EP. The molar ratio of peptide to streptavidin was kept below 1:1 to ensure that peptide immobilization was random and not clustered on the tetravalent streptavidin molecules. Reference flow cells were treated with buffer and then blocked with biotin; pilot experiments using unphosphorylated control peptides in reference flow cells were indistinguishable from buffer-treated reference flow cells when injected with SHP-1. The chip surface was then conditioned with 5 × 5-min injections of HBS-EP. SHP-1 protein in HBS-EP with 1 mM dithiothreitol was then injected over reference and experimental flow cells in series for 5 min at the indicated concentrations. All SPR data were converted from the reference-subtracted data (in resonance units) to fraction bound by dividing the resonance units by the theoretical maximum resonance units expected if the experimental flow cell was saturated with bound SHP-1.
# To determine the concentration of peptide in the assays, we first needed a conversion factor between the resonance units and the mass of peptide at the chip surface. We determined this conversion factor by injecting four concentrations of SHP-1 over a control flow cell on a CM5 chip and plotting the mass of SHP-1 injected against the raw resonance unit change. We repeated this on seven flow cells across four sensor chips to get an average slope of 149 ± 15 RU per g/liter (±SEM). This constant, together with the molecular weight of the peptide, was used to convert between the resonance units of peptides immobilized and the molar concentration at the chip surface. For example, 48.5 RU of PEG28-ITIM (molecular weight, 3221) was immobilized to obtain [peptide] = 97.1 μM (Fig. 2A).
# From the MPDPDE model–simulated SPR traces, one would predict that the kcat*(solution) (fig. S4, G and H) and L (fig. S4F) are likely to be very sensitive to small systematic errors in the SPR trace at longer time scales. Nonspecific binding and baseline drift are two well-known sources of such systemic errors that can produce artifacts at long time scales (see fig. S6A for examples). To exclude data affected by these artifacts, we propose a simple quality control check that greatly improves the accuracy of estimating L, kcat*(tethered) , and kcat*(solution) . As a measure of the signal-to-noise ratio at long time points, we took the resonance units 20 s after the injection was completed (noise) and divided it by the resonance units 20 s before the injection finished (signal). […] Data that had evidence of significant artifact were excluded from the study based on this criterion (red data points in fig. S6B). […]
substance,measurement,setting,value
"SHP-1: murine SHP-1 tyrosine phosphatase with an N-terminal 6× His tag, expressed in E. coli","k*cat (= kcat/Km), overall catalytic rate in solution",PEG12-ITIM peptide,6800 M⁻¹ s⁻¹
same,"L (reach parameter), SH2 variants","PEG28-ITIM; SHP-1 variants over PEG28-ITIM, average fit Fig. 6B: WT n = 15, N-SH2 mutant n = 3, C-SH2 mutant n = 9",23.0 nm
same,share of time spent in open active conformation in solution,"PEG28-ITIM; assuming complete open transition on SH2 binding, kcat*(solution) = 0.05 kcat*(tethered)",5%
same,k*cat (tethered),"PEG28-ITIM; average of all experiments Fig. 4C, n = 15, SEM printed ± 1.3 × 10^-2, wild-type SHP-1, PEG28-ITIM, 10°C, HBS-EP pH 7.4",11800 M⁻¹ s⁻¹
same,L (reach parameter),"PEG28-ITIM; average of all experiments Fig. 4C, n = 15, SEM ± 0.46, wild-type SHP-1, PEG28-ITIM, 10°C, HBS-EP pH 7.4",23 nm
same,k*cat (solution),"PEG28-ITIM; average of all experiments Fig. 4C, n = 15, SEM ± 1.15 × 10^-4, wild-type SHP-1, PEG28-ITIM, 10°C, HBS-EP pH 7.4",603 M⁻¹ s⁻¹
same,increase in tethered over solution catalytic rate (allosteric activation),"PEG28-ITIM; wild-type SHP-1, PEG28-ITIM, kcat*(tethered) versus kcat*(solution)",20 fold
